In patent publication US12479840B2, “HMG-CoA reductase degradation inducing compound” (Uppthera, priority 2020, dated 2025):

Target: T1, HMG-CoA reductase (Homo sapiens, UniProt P04035)
T1 construct: endogenous in cells; host or cells: HepG2 (Korea Cell Line Bank)
T1 sequence (P04035 1-888): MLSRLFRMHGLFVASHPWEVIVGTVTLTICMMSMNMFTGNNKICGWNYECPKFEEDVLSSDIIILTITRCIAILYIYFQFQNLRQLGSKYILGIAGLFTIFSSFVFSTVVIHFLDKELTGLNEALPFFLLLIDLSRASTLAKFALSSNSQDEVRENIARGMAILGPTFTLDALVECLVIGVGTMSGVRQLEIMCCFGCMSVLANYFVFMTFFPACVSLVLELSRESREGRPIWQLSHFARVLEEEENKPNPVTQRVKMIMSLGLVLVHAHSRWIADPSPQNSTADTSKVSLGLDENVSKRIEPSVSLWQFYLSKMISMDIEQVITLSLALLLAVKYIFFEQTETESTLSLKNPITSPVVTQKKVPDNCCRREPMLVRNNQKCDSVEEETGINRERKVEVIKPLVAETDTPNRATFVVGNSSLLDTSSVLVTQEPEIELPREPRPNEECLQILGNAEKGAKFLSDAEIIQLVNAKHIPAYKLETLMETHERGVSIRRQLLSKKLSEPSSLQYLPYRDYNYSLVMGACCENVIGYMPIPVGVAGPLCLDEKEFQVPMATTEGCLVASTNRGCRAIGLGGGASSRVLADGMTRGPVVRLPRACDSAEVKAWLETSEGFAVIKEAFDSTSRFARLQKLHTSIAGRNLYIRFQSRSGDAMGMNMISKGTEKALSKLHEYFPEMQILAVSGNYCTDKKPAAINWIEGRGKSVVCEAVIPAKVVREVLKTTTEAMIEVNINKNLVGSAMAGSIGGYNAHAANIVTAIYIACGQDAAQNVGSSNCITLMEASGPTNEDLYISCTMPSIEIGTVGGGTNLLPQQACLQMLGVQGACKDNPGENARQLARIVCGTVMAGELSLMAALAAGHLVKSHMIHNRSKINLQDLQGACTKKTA
Test: HMG-CoA reductase (HMGCR) degradation in HepG2 cells by western blotting
Type: cell-based
Settings: treated for 18 hours, ratio of HMG-CoA reductase to GAPDH, read-out: DC50
Summary of the method: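 HepG2 cells (passage P105–P110) treated 18 hours with compounds in 10-point three-fold dilutions from 3 μM. RIPA lysates (15 μg protein, BCA-quantified) run on SDS-PAGE and immunoblotted for HMGCR (1:500) with GAPDH (1:20000) as loading control, primary antibodies 16 hours at 4° C.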

| SMILES | DC50 |
| --- | --- |
| C[C@H]1C=C2C=C[C@H](C)[C@H](CC[C@@H]3C[C@@H](O)CC(=O)O3)[C@H]2[C@@H](OC(=O)NCCOCCOCCOCC(=O)Nc2cccc3c2C(=O)N(C2CCC(=O)NC2=O)C3=O)C1 (stereo partly drawn) [Compound 99, (1S,3R,7S,8S,8aR)-8-(2-((2R,4R)-4-hydroxy-6-oxotetrahydro-2H-pyran-2-yl)ethyl)-3,7-dimethyl-1,2,3,7,8,8a-hexahydronaphthalen-1-yl (2-(2-(2-(2-((2-(2,6-dioxopiperidin-3-yl)-1,3-dioxoisoindolin-4-yl)amino)-2-oxoethoxy)ethoxy)ethoxy)ethyl)carbamate] | < 50 nM |
| C[C@H]1C=C2C=C[C@H](C)[C@H](CC[C@@H]3C[C@@H](O[Si](C)(C)C(C)(C)C)CC(=O)O3)[C@H]2[C@@H](OC(=O)NCCC(=O)NCCOCCNc2cccc3c2C(=O)N(C2CCC(=O)NC2=O)C3=O)C1 (stereo partly drawn) [Compound 100, (1S,3R,7S,8S,8aR)-8-(2-((2R,4R)-4-((tert-butyldimethylsilyl)oxy)-6-oxotetrahydro-2H-pyran-2-yl)ethyl)-3,7-dimethyl-1,2,3,7,8,8a-hexahydronaphthalen-1-yl (3-((2-(2-((2-(2,6-dioxopiperidin-3-yl)-1,3-dioxoisoindolin-4-yl)amino)ethoxy)ethyl)amino)-3-oxopropyl)carbamate] | < 50 nM |
| C[C@H]1C=C2C=C[C@H](C)[C@H](CC[C@@H]3C[C@@H](O)CC(=O)O3)[C@H]2[C@@H](OC(=O)NCCC(=O)NCCOCCNc2cccc3c2C(=O)N(C2CCC(=O)NC2=O)C3=O)C1 (stereo partly drawn) [Compound 101, (1S,3R,7S,8S,8aR)-8-(2-((2R,4R)-4-hydroxy-6-oxotetrahydro-2H-pyran-2-yl)ethyl)-3,7-dimethyl-1,2,3,7,8,8a-hexahydronaphthalen-1-yl (3-((2-(2-((2-(2,6-dioxopiperidin-3-yl)-1,3-dioxoisoindolin-4-yl)amino)ethoxy)ethyl)amino)-3-oxopropyl)carbamate] | < 50 nM |
| C[C@H]1C=C2C=C[C@H](C)[C@H](CC[C@@H]3C[C@@H](O[Si](C)(C)C(C)(C)C)CC(=O)O3)[C@H]2[C@@H](OC(=O)NCCCn2cnc(CNc3cccc4c3C(=O)N(C3CCC(=O)NC3=O)C4=O)c2)C1 (stereo partly drawn) [Compound 102, (1S,3R,7S,8S,8aR)-8-(2-((2R,4R)-4-((tert-butyldimethylsilyl)oxy)-6-oxotetrahydro-2H-pyran-2-yl)ethyl)-3,7-dimethyl-1,2,3,7,8,8a-hexahydronaphthalen-1-yl (3-(4-(((2-(2,6-dioxopiperidin-3-yl)-1,3-dioxoisoindolin-4-yl)amino)methyl)-1H-imidazol-1-yl)propyl)carbamate] | < 50 nM |
| C[C@H]1C=C2C=C[C@H](C)[C@H](CC[C@@H]3C[C@@H](O)CC(=O)O3)[C@H]2[C@@H](OC(=O)NCCCn2cnc(CNc3cccc4c3C(=O)N(C3CCC(=O)NC3=O)C4=O)c2)C1 (stereo partly drawn) [Compound 103, (1S,3R,7S,8S,8aR)-8-(2-((2R,4R)-4-hydroxy-6-oxotetrahydro-2H-pyran-2-yl)ethyl)-3,7-dimethyl-1,2,3,7,8,8a-hexahydronaphthalen-1-yl (3-(4-(((2-(2,6-dioxopiperidin-3-yl)-1,3-dioxoisoindolin-4-yl)amino)methyl)-1H-imidazol-1-yl)propyl)carbamate] | < 50 nM |
| C[C@H]1C=C2C=C[C@H](C)[C@H](CC[C@@H]3C[C@@H](O[Si](C)(C)C(C)(C)C)CC(=O)O3)[C@H]2[C@@H](OC(=O)NCc2ccc(OCCNc3cccc4c3C(=O)N(C3CCC(=O)NC3=O)C4=O)cc2)C1 (stereo partly drawn) [Compound 104, (1S,3R,7S,8S,8aR)-8-(2-((2R,4R)-4-((tert-butyldimethylsilyl)oxy)-6-oxotetrahydro-2H-pyran-2-yl)ethyl)-3,7-dimethyl-1,2,3,7,8,8a-hexahydronaphthalen-1-yl (4-(2-((2-(2,6-dioxopiperidin-3-yl)-1,3-dioxoisoindolin-4-yl)amino)ethoxy)benzyl)carbamate] | < 50 nM |
| C[C@H]1C=C2C=C[C@H](C)[C@H](CC[C@@H]3C[C@@H](O)CC(=O)O3)[C@H]2[C@@H](OC(=O)NCc2ccc(OCCNc3cccc4c3C(=O)N(C3CCC(=O)NC3=O)C4=O)cc2)C1 (stereo partly drawn) [Compound 105, (1S,3R,7S,8S,8aR)-8-(2-((2R,4R)-4-hydroxy-6-oxotetrahydro-2H-pyran-2-yl)ethyl)-3,7-dimethyl-1,2,3,7,8,8a-hexahydronaphthalen-1-yl (4-(2-((2-(2,6-dioxopiperidin-3-yl)-1,3-dioxoisoindolin-4-yl)amino)ethoxy)benzyl)carbamate] | < 50 nM |
| C[C@H]1C=C2C=C[C@H](C)[C@H](CC[C@@H](O)C[C@@H](O)CC(=O)O)[C@H]2[C@@H](OC(=O)NCCOCCOCCNc2cccc3c2C(=O)N(C2CCC(=O)NC2=O)C3=O)C1 (stereo partly drawn) [Compound 106, (3R,5R)-7-((1S,2S,6R,8S,8aR)-8-(((2-(2-(2-((2-(2,6-dioxopiperidin-3-yl)-1,3-dioxoisoindolin-4-yl)amino)ethoxy)ethoxy)ethyl)carbamoyl)oxy)-2,6-dimethyl-1,2,6,7,8,8a-hexahydronaphthalen-1-yl)-3,5-dihydroxyheptanoic acid] | < 50 nM |
| C[C@H]1C=C2C=C[C@H](C)[C@H](CC[C@@H](O)C[C@@H](O)CC(=O)O)[C@H]2[C@@H](OC(=O)NCCOCCOCCOCCNc2cccc3c2C(=O)N(C2CCC(=O)NC2=O)C3=O)C1 (stereo partly drawn) [Compound 107, (3R,5R)-7-((1S,2S,6R,8S,8aR)-8-(((2-(2-(2-(2-((2-(2,6-dioxopiperidin-3-yl)-1,3-dioxoisoindolin-4-yl)amino)ethoxy)ethoxy)ethoxy)ethyl)carbamoyl)oxy)-2,6-dimethyl-1,2,6,7,8,8a-hexahydronaphthalen-1-yl)-3,5-dihydroxyheptanoic acid] | < 50 nM |
| C[C@H]1C=C2C=C[C@H](C)[C@H](CC[C@@H]3C[C@@H](O[Si](C)(C)C(C)(C)C)CC(=O)O3)[C@H]2[C@@H](OC(=O)NCCOCCOCC#Cc2cccc3c2C(=O)N(C2CCC(=O)NC2=O)C3=O)C1 (stereo partly drawn) [Compound 114, (1S,3R,7S,8S,8aR)-8-(2-((2R,4R)-4-((tert-butyldimethylsilyl)oxy)-6-oxotetrahydro-2H-pyran-2-yl)ethyl)-3,7-dimethyl-1,2,3,7,8,8a-hexahydronaphthalen-1-yl (2-(2-((3-(2-(2,6-dioxopiperidin-3-yl)-1,3-dioxoisoindolin-4-yl)prop-2-yn-1-yl)oxy)ethoxy)ethyl)carbamate] | < 50 nM |
| C[C@H]1C=C2C=C[C@H](C)[C@H](CC[C@@H]3C[C@@H](O)CC(=O)O3)[C@H]2[C@@H](OC(=O)NCCOCCOCC#Cc2cccc3c2C(=O)N(C2CCC(=O)NC2=O)C3=O)C1 (stereo partly drawn) [Compound 115, (1S,3R,7S,8S,8aR)-8-(2-((2R,4R)-4-hydroxy-6-oxotetrahydro-2H-pyran-2-yl)ethyl)-3,7-dimethyl-1,2,3,7,8,8a-hexahydronaphthalen-1-yl (2-(2-((3-(2-(2,6-dioxopiperidin-3-yl)-1,3-dioxoisoindolin-4-yl)prop-2-yn-1-yl)oxy)ethoxy)ethyl)carbamate] | < 50 nM |
| C[C@H]1C=C2C=C[C@H](C)[C@H](CC[C@@H]3C[C@@H](O[Si](C)(C)C(C)(C)C)CC(=O)O3)[C@H]2[C@@H](OC(=O)NCCCOCCCCNc2cccc3c2C(=O)N(C2CCC(=O)NC2=O)C3=O)C1 (stereo partly drawn) [Compound 120, (1S,3R,7S,8S,8aR)-8-(2-((2R,4R)-4-((tert-butyldimethylsilyl)oxy)-6-oxotetrahydro-2H-pyran-2-yl)ethyl)-3,7-dimethyl-1,2,3,7,8,8a-hexahydronaphthalen-1-yl (3-(4-((2-(2,6-dioxopiperidin-3-yl)-1,3-dioxoisoindolin-4-yl)amino)butoxy)propyl)carbamate] | 50 to 500 nM |
| C[C@H]1C=C2C=C[C@H](C)[C@H](CC[C@@H]3C[C@@H](O)CC(=O)O3)[C@H]2[C@@H](OC(=O)NCCCOCCCCNc2cccc3c2C(=O)N(C2CCC(=O)NC2=O)C3=O)C1 (stereo partly drawn) [Compound 121, (1S,3R,7S,8S,8aR)-8-(2-((2R,4R)-4-hydroxy-6-oxotetrahydro-2H-pyran-2-yl)ethyl)-3,7-dimethyl-1,2,3,7,8,8a-hexahydronaphthalen-1-yl (3-(4-((2-(2,6-dioxopiperidin-3-yl)-1,3-dioxoisoindolin-4-yl)amino)butoxy)propyl)carbamate] | < 50 nM |
